The values that follow come from US9624228B2, “Inhibitors of ERK and methods of use” (KURA ONCOLOGY, INC., priority 2013, dated 2017).

One data set concerns the target ERK2 enzyme (Homo sapiens (Human), UniProt P28482). As to the kind of experiment: Inhibition assay of ERK (Z'-LYTE kinase assay, Ser/Thr 3 peptide substrate). In kind it is biochemical. Particulars: 100 μM ATP.
Another data set deals with H358 (Kras, G12C) cells. Nature of the data set: Tumor cell line proliferation assay (CellTiter Glo), H358. As to conditions: Homo sapiens, NCI-H358, 96 h, read-out: H358 (Kras, G12C) Cell Proliferation IC50 (nM). Background: ATP-based viability assays read luminescence as a measure of living cells.
Another data set concerns A375 cells. As to the kind of experiment: Tumor cell line proliferation assay (CellTiter Glo), A375. Format: cell-based. Particulars: Homo sapiens, read-out: A375 (V599E) Cell Proliferation IC50.
For data set [1], the system named is phospho-RSK1 (Thr359/Ser363) in A375 (Braf V600E) cells. Nature of the data set: Phospho-p90 RSK ELISA using A375 (Braf V600E) cells. Format: cell-based. As to conditions: Homo sapiens, A-375, 2 hours compound treatment, read-out: Cellular Phospho-p90RSK IC50. As for the experimental part:
In preparation for the assay, an ELISA plate with the pre-coated goat anti-mouse antibody (Thermo Scientific) was treated with a mouse anti-human RSK1 antibody (monoclonal, Invitrogen) at 1:800 dilution (150 ng/well) in PBS, and the plate was placed on a plate shaker at 4° C. overnight. […] After two hours of the compound treatment, the supernatant was removed from the cell plate, and cells were lysed in 100 μl per well of cell lysis buffer (Cell Signaling Technologies) containing phosphatase and protease inhibitors (Cell Signaling Technologies) on a plate shaker at 4° C. for 20 minutes. The ELISA plate was washed four times with ELISA wash buffer (Thermo Scientific) prior to addition of 100 μL cell lysate. The lysate was incubated on the ELISA plate with gentle shaking at room temperature for 2 hours. The contents of the wells were removed, and the ELISA plate was washed four times with wash buffer, and incubated with 100 μL per well of anti-phospho-RSK1 (Thr359/Ser363) rabbit monoclonal antibody (Millipore) at dilution of 1:1000 in StartingBlock buffer (Thermo Scientific) on a plate shaker at room temperature for 1 hour. The contents of the wells were removed, the ELISA plate was washed four times with wash buffer, and was incubated with 100 μL per well of goat anti-rabbit HRP (Thermo Scientific) at dilution of 1:3000 in StartingBlock buffer (Thermo Scientific) on a plate shaker at room temperature for 1 hour. The contents of the wells were removed, the ELISA plate was washed four times with wash buffer, and then incubated with 100 μL per well of TMB substrate solution (Thermo Scientific) on a plate shaker at room temperature for 20 minutes. Finally, 100 μL of TMB stop solution (Thermo Scientific) was added to each well and the absorbance is measured at 450 nm on a Tecan plate reader.
A general note: In an ELISA, binding on a coated surface is turned into a signal by an enzyme label.

The conditions of data set [2]: control or reference compounds, 5 μM; cited from earlier work.
For data set [3] the following is noted: PBS pH 7.4, 37° C., over the course of 24 hours; cited from earlier work.
Another data set concerns WM-266-4 cells. Nature of the data set: Tumor cell line proliferation assay (CellTiter Glo), WM-266-4. As to conditions: Homo sapiens, WM 266-4, 96 h, read-out: WM-266-4 (V599D) Cell Proliferation IC50 (nM).
The mark [4] stands for this setting: In vitro, ERK2 enzyme 0.47 ng/μL.

Like-named read-outs stand apart in the source and are kept apart here. Some results are limits rather than exact numbers.

ERK2 enzyme, sequence (P28482 whole entry): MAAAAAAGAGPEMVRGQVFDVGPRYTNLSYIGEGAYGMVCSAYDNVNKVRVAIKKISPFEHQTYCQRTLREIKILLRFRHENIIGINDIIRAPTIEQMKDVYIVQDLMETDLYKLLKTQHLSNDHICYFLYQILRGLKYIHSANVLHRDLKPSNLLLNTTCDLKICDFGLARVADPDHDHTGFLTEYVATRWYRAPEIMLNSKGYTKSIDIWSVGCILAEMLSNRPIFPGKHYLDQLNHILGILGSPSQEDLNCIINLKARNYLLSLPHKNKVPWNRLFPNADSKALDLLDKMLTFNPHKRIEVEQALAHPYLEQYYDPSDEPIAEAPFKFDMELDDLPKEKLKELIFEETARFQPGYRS
Experimental for H358 (Kras, G12C) cells: (§1) The ability of one or more compounds of the invention to inhibit tumor cell line proliferation was determined according to standard procedures known in the art. For instance, an in vitro cellular proliferation assay was performed to measure the metabolic activity of live cells. […] The cells were incubated at 37° C. under 5% CO2 for two hours to allow for attachment to the plates. Compounds were first diluted in 1:3 dilutions in 100% DMSO at 250× the desired concentration, and then further diluted (1:50) in 10% DMEM growth medium. The diluted compounds were added to the cell plate (25 μL for a 5× dilution) and the cells are incubated with compounds (0.4% DMSO in 10% FBS DMEM) for 96 hours at 37° C. under 5% CO2. The cell control wells were added with vehicle only (0.4% DMSO in 10% FBS DMEM or in 10% FBS RPMI). Each concentration of the compounds was tested in duplicates. After 96 hours of the compound treatment, CellTiter Glo reagent (Promega) was added at a 1:5 dilution to each well of the cell plate and the cell plate was placed at room temperature for 30 minutes. The luminescence of the wells was determined using a Tecan plate reader.
Experimental for WM-266-4 cells: as §1

With `Cc1cc(-c2n[nH]c3cc4[nH]c(=O)c(C(C)c5cccc(Cl)c5)cc4cc23)ccn1` (stereo not shown) [Compound 181], the IC50 against ERK2 enzyme (In vitro ERK2 enzyme) was 50 to 250 nM; in the data set on H358 (Kras, G12C) cells, below 250 nM; in the data set with A375 cells (A-375, 96 hours), below 250 nM; in data set [1], below 250 nM.
In the case of `Cc1cc(-c2n[nH]c3cc4[nH]c(=O)c(C(C)c5ccc(F)cc5)cc4cc23)ccn1` (stereo not shown) [Compound 197], the IC50 was below 50 nM on ERK2 enzyme (In vitro ERK2 enzyme); below 250 nM in the data set with H358 (Kras, G12C) cells; below 250 nM with A375 cells (A-375, 96 h); below 250 nM in data set [1].
With `CCCOc1cc(N)ccc1C(=O)OCCN(CC)CC` [propoxycaine], the plasma stability entry in data set [2] was “low plasma stability”.
Regarding `O=C1Nc2cc3[nH]nc(NC4CCOCC4)c3cc2CN1[C@@H]1CN(CC(F)(F)F)C[C@H]1c1ccccc1` [Compound 361], the IC50 at ERK2 enzyme (setting [4]) is 50 to 250 nM; in data set [1], below 250 nM.
In the case of `CC(C)[N+](C)(CCOC(=O)C1c2ccccc2Oc2ccccc21)C(C)C` [propantheline], in data set [2], the plasma stability result is “intermediate plasma stability”.
On to `Cc1cc(-c2n[nH]c3cc4c(cc23)CN([C@@H]2CCCN(C(=O)c3cccc(Cl)c3)C2)C(=O)N4)ccn1` [Compound 152], for which the results for the IC50 (at ERK2 enzyme (In vitro ERK2 enzyme); in data set [1]) were below 50 nM and 250 to 1000 nM, respectively.
For `O=C(O)CCCc1ccc(N(CCCl)CCCl)cc1` [chlorambucil], the chemical stability result in data set [3] is recorded as “largely hydrolyzed”.
`Cc1cc(-c2n[nH]c3cc4[nH]c(=O)c([C@H](C)c5ccc(F)cc5)cc4cc23)ccn1` [Compound 288]: the IC50 was below 50 nM at ERK2 enzyme (setting [4]) and below 250 nM in data set [1].
Consider `Cc1cc(-c2n[nH]c3cc4c(cc23)CC([C@H](C)c2ccccc2)C(=O)N4)ccn1` (stereo partly shown) [Compound 371], for which the values for the IC50 (at ERK2 enzyme (setting [4]); in data set [1]) were 50 to 250 nM and 250 to 1000 nM, respectively.
Regarding `O=C1Nc2cc3[nH]nc(-c4ccnnc4)c3cc2CN1Cc1cccc(Cl)c1` [Compound 66], the IC50 against ERK2 enzyme (In vitro ERK2 enzyme) is below 50 nM; in data set [1], 250 to 1000 nM.
As to `Cc1cc(-c2n[nH]c3cc4[nH]c(=O)c(Cc5ccccc5)cc4cc23)ccn1` [Compound 6], the IC50 against ERK2 enzyme (In vitro ERK2 enzyme) is 50 to 250 nM; in the data set with A375 cells (A-375, 96 h), 250 to 1000 nM; in the data set with WM-266-4 cells, 250 to 1000 nM.
`COc1ncc(-c2n[nH]c3cc4c(cc23)CN([C@H](C)c2cccc(Cl)c2)C(=O)N4)cn1` [Compound 71] returned an IC50 on ERK2 enzyme (In vitro ERK2 enzyme) below 50 nM.
Molecule `Cc1cc(-c2n[nH]c3cc4[nH]c(=O)c(C5CCCN(Cc6ccccc6)C5)cc4cc23)ccn1` (stereo not shown) [Compound 332] came in with an IC50 against ERK2 enzyme (setting [4]) below 50 nM.
Regarding `COc1cc(-c2n[nH]c3cc4c(cc23)CN(Cc2ccc(F)c(Cl)c2)C(=O)N4)ccn1` [Compound 38], the IC50 on ERK2 enzyme (In vitro ERK2 enzyme) was below 50 nM.
`Cc1cc(-c2n[nH]c3cc4c(cc23)CN([C@@H]2CCCN(Cc3ccc(F)s3)C2)C(=O)N4)ccn1` [Compound 290] yielded an IC50 on ERK2 enzyme (setting [4]) below 50 nM.
Take `Cc1cc(-c2n[nH]c3cc4c(cc23)CN(CCc2cccc(Cl)c2)C(=O)N4)ccn1` [Compound 50]: the IC50 on ERK2 enzyme (In vitro ERK2 enzyme) is below 50 nM.
In the case of `Cc1cc(-c2n[nH]c3cc4c(cc23)CN([C@H](CO)c2cccc(Cl)c2)C(=O)N4)ccn1` [Compound 26], the IC50 at ERK2 enzyme (In vitro ERK2 enzyme) was below 50 nM.
`Cc1cc(-c2n[nH]c3cc4c(cc23)CN([C@@H]2CN(CC(F)(F)F)C[C@H]2c2ccccc2)C(=O)N4)ccn1` [Compound 222]: at ERK2 enzyme (setting [4]), the IC50 was in the range of 50 to 250 nM.
In the case of `Cc1cc(-c2n[nH]c3cc4c(cc23)CN([C@@H]2CCN(Cc3c(F)cccc3F)C2)C(=O)N4)ccn1` [Compound 147], the IC50 against ERK2 enzyme (In vitro ERK2 enzyme) is 50 to 250 nM.
Same read-out and setting: to `COc1ncc(-c2n[nH]c3cc4c(cc23)CN(CCc2ccc(F)cc2)C(=O)N4)cn1` [Compound 80] belongs below 50 nM.
`Cc1cc(-c2n[nH]c3cc4c(cc23)CN([C@H](C)c2ccc(Cl)cc2)C(=O)N4)ccn1` [Compound 16] returned an IC50 at ERK2 enzyme (In vitro ERK2 enzyme) below 50 nM.
On ERK2 enzyme (setting [4]), `Cc1cc(-c2n[nH]c3cc4c(cc23)CN(CC2CCOCC2)C(=O)N4)cc(C)n1` [Compound 250] gave an IC50 below 50 nM.
Still for that read-out and setting: next, `Cc1cc(-c2n[nH]c3cc4c(cc23)CN(C(C)C2CCOCC2)C(=O)N4)ccn1` (stereo not shown) [Compound 262]: below 50 nM.
On ERK2 enzyme (In vitro ERK2 enzyme), `Cc1cc(-c2n[nH]c3cc4c(cc23)CN([C@@H]2CCCN(Cc3ccc(F)c(F)c3)C2)C(=O)N4)ccn1` [Compound 190] registered an IC50 below 50 nM.
Molecule `COc1ncc(-c2n[nH]c3cc4c(cc23)CN(CCc2cccc(Cl)c2)C(=O)N4)cn1` [Compound 86] registered an IC50 against ERK2 enzyme (In vitro ERK2 enzyme) below 50 nM.
The same measure, in the same setting: to `Cc1cc(-c2n[nH]c3cc4c(cc23)CN([C@@H]2CCCN(Cc3ccc(F)cn3)C2)C(=O)N4)ccn1` [Compound 132] belongs below 50 nM.
As for `O=C1Nc2cc3[nH]nc(-c4cn[nH]c4)c3cc2CN1Cc1cccc(Cl)c1` [Compound 60], the IC50 on ERK2 enzyme (In vitro ERK2 enzyme) was below 50 nM.
Molecule `Cc1cc(-c2n[nH]c3cc4[nH]c(=O)c(C5CCCN(Cc6ccccc6)C5)cc4cc23)cc(C)n1` (stereo not shown) [Compound 360] came in with an IC50 at ERK2 enzyme (setting [4]) of 50 to 250 nM.
`Cc1cc(-c2n[nH]c3cc4c(cc23)CN(Cc2cccc(C#N)c2)C(=O)N4)ccn1` [Compound 55] came in with an IC50 against ERK2 enzyme (In vitro ERK2 enzyme) below 50 nM.
Regarding `Cc1cc(-c2n[nH]c3cc4c(cc23)CN([C@@H]2CCCN(CCC3CC3)C2)C(=O)N4)ccn1` [Compound 155], on ERK2 enzyme (In vitro ERK2 enzyme), the IC50 is below 50 nM.
Same read-out and setting: to `Cc1cc(-c2n[nH]c3cc4c(cc23)CN(CCN2CCOCC2)C(=O)N4)ccn1` [Compound 51] belongs below 50 nM.
`COc1ccc(-c2n[nH]c3cc4c(cc23)CN([C@@H]2CCCN(Cc3ccccc3)C2)C(=O)N4)cn1` [Compound 272] had an IC50 against ERK2 enzyme (setting [4]) below 50 nM.
On the same count and under the same terms, to `Cc1cc(-c2n[nH]c3cc4c(cc23)CN([C@@H]2CCCN(C(C)C(F)(F)F)C2)C(=O)N4)ccn1` (stereo partly shown) [Compound 216] belongs below 50 nM.
Consider `Cc1cc(-c2n[nH]c3cc4c(cc23)CN([C@@H]2CCCN(CC(F)(F)F)C2)C(=O)N4)ccn1` [Compound 193], for which the IC50 against ERK2 enzyme (In vitro ERK2 enzyme) was below 50 nM.
Consider `Cn1nccc1-c1n[nH]c2cc3c(cc12)CN([C@@H]1CN(CC(F)(F)F)C[C@H]1c1ccccc1)C(=O)N3` [Compound 350], for which the IC50 at ERK2 enzyme (setting [4]) was in the range of 250 to 1000 nM.
Consider `Cc1cc(-c2n[nH]c3cc4c(cc23)CN(C2CCNCC2)C(=O)N4)ccn1` [Compound 34], for which, at ERK2 enzyme (In vitro ERK2 enzyme), the IC50 lay within 50 to 250 nM.
With `Cc1cc(-c2n[nH]c3cc4c(cc23)CN([C@H]2CCCN(CC(F)(F)F)C2)C(=O)N4)ccn1` [Compound 309], the IC50 against ERK2 enzyme (setting [4]) lay in the range of 50 to 250 nM.
For the molecule `Cc1cc(-c2n[nH]c3cc4c(cc23)CN([C@@H]2CCCNC2)C(=O)N4)ccn1` [Compound 32], the IC50 against ERK2 enzyme (In vitro ERK2 enzyme) was in the range of 50 to 250 nM.
On ERK2 enzyme (In vitro ERK2 enzyme), `Cc1cc(-c2n[nH]c3cc4c(cc23)CN(CCNCc2ccccc2)C(=O)N4)ccn1` [Compound 149] returned an IC50 below 50 nM.
`Cc1cc(-c2n[nH]c3cc4c(cc23)CN([C@H](C)CO)C(=O)N4)ccn1` [Compound 54] returned an IC50 at ERK2 enzyme (In vitro ERK2 enzyme) below 50 nM.
`Cc1cc(-c2n[nH]c3cc4c(cc23)CN([C@@H]2CCN(CC(F)(F)F)C2)C(=O)N4)cc(C)n1` [Compound 237] yielded an IC50 at ERK2 enzyme (setting [4]) below 50 nM.
On the same count and under the same terms, next, `CCN1CC[C@@H](N2Cc3cc4c(-c5ccnc(C)c5)n[nH]c4cc3NC2=O)C1` [Compound 256]: below 50 nM.
Take `O=C1Nc2cc3[nH]nc(-c4ccc(N5CCOCC5)nc4)c3cc2CN1Cc1cccc(Cl)c1` [Compound 231]: the IC50 at ERK2 enzyme (setting [4]) is below 50 nM.
The molecule `Cc1cc(-c2n[nH]c3cc4c(cc23)CN(CC2CCC2)C(=O)N4)ccn1` [Compound 253] yielded an IC50 against ERK2 enzyme (setting [4]) below 50 nM.
On to `Cc1cc(-c2n[nH]c3cc4[nH]c(=O)c(C(C)Cc5ccc(F)cc5)cc4cc23)ccn1` (stereo not shown) [Compound 73], for which, on ERK2 enzyme (In vitro ERK2 enzyme), the IC50 is above 1000 nM.
